Patent US6316448A, “Pyrazolo[3,4-d][1,2,3] troazines having anticonvulsant activity and process for their preparation” (priority 1999, dated 2001)

Key:
[1] = Anticonvulsive action, maximal electroshock (MES), mouse i.p.; assay type: in vivo
From the text: (§1) ^3) Mouse i.p.: MES = maximal electroshock, PTZ = s.c. pentetrazol
(§2) ^5) in % of the protected animals

[2] = Anticonvulsive action, s.c. pentetrazol (PTZ), mouse i.p.; assay type: in vivo
From the text: as §1, §2

[3] = Octanol/water partition coefficient; assay type: physicochemical
From the text: ^2) Octanol/water partition coefficient, n = not measured

[4] = Maximal electroshock, rat p.o.; assay type: in vivo; conditions: po
Method: The compounds according to the invention were tested in vivo for their anticonvulsive action (Table 1) in mice (i.p. administration) or rats (p.o. administration) according to the internationally customary standard (Pharmac. Weekblad, Sc. Ed. 14, 132 (1992) and Antiepileptic Drugs, Third. Ed., Raven Press, New York 1989).
(§3) Analogous results were obtained for the oral action.

in vivo = conditions: rat, po
From the text: as §3

[5] = ip, mouse i.p., MES, read-out: Action, % of the protected animals (MES)
[6] = ip, mouse i.p., s.c. pentetrazol, read-out: Action, % of the protected animals (PTZ)
[7] = ip, mouse i.p., MES, 100 mg/kg, read-out: Action, % of the protected animals (MES)
[8] = ip, mouse i.p., s.c. pentetrazol, 100 mg/kg, read-out: Action, % of the protected animals (PTZ)

Compound	responders at 300 mg/kg [2, 6] [%]	logP [3]	responders at 100 mg/kg [1, 7] [%]	responders at 100 mg/kg [2, 8] [%]	other results
Cc1ccccc1Cn1cc2c(=O)[nH]nnc2n1 [Compound 4, 6-(2-methylbenzyl)-3,6-dihydropyrazolo[3,4-d][1,2,3]triazin-4-one]	100	0.74			responders at 30 mg/kg [1, 5]: 100%
O=c1[nH]nnc2nn(Cc3ccc(Cl)cc3)cc12 [Compound 8, 6-(4-chlorobenzyl)-3,6-dihydropyrazolo[3,4-d][1,2,3]triazin-4-one]	100	1.88			responders at 300 mg/kg ([1]; ip, mouse i.p., MES, 300 mg/kg, read-out: Action, % of the protected animals (MES)): 100%
NC(=O)N1c2ccccc2C=Cc2ccccc21 [Carbamazepine, reference compound]			100	0	
6-(2-chloro-4-fluorobenzyl)-5-methyl-3,6-dihydropyrazolo[3,4-d][1,2,3]triazin-4-one [Compound 11]					Action, % of the protected animals (MES) ([1]; mouse i.p., MES, 100 mg/kg): 66%; Action, % of the protected animals (PTZ) ([2]; mouse i.p., s.c. pentetrazol, 100 mg/kg): 33%
CCCC(CCC)C(=O)O [Valproate, reference compound]					responders at 100 mg/kg ([1]; Mus musculus, ip, read-out: Action, % of the protected animals (MES)): 0%; responders at 100 mg/kg ([2]; Mus musculus, ip, read-out: Action, % of the protected animals (PTZ)): 30%
O=c1[nH]nnc2nn(Cc3cccc(Cl)c3)cc12 [Compound 5, 6-(3-chlorobenzyl)-3,6-dihydropyrazolo[3,4-d][1,2,3]triazin-4-one]	0	1.83	100		
O=c1[nH]nnc2nn(Cc3c(F)cccc3Cl)cc12 [Compound 9, 6-(2-chloro-6-fluorobenzyl)-3,6-dihydropyrazolo[3,4-d][1,2,3]triazin-4one]		1.38		100	responders at 10 mg/kg ([1]; ip, mouse i.p., MES, 10 mg/kg, read-out: Action, % of the protected animals (MES)): 20%
O=c1[nH]nnc2nn(Cc3ccccc3)cc12 [Compound 12, 6-benzyl-3,6-dihydropyrazolo[3,4-d][1,2,3]triazin-4-one]			66	0	
O=c1[nH]nnc2nn(Cc3ccccc3Cl)cc12 [Compound 2, 6-(2-chlorobenzyl)-3,6-dihydropyrazolo[3,4-d][1,2,3]triazin-4-one]		0.82			responders at 30 mg/kg [1, 5]: 100%; responders at 30 mg/kg ([2]; ip, mouse i.p., s.c. pentetrazol, 30 mg/kg, read-out: Action, % of the protected animals (PTZ)): 60%; ED50 [4]: 3 mg/kg; TD50 (in vivo): > 250 mg/kg
O=c1[nH]nnc2nn(Cc3cccc(C(F)(F)F)c3)cc12 [Compound 6, 6-(3-trifluoromethylbenzyl)-3,6-dihydropyrazolo[3,4-d][1,2,3]triazin-4-one]		2.02	66	20	
O=c1[nH]nnc2nn(Cc3ccccc3C(F)(F)F)cc12 [Compound 3, 6-(2-trifluoromethylbenzyl)-3,6-dihydropyrazolo[3,4-d][1,2,3]triazin-4-one]		1.74		100	responders at 30 mg/kg [1, 5]: 33%
Cc1c2c(=O)[nH]nnc2nn1Cc1ccccc1Cl [Compound 10, 6-(2-chlorobenzyl)-5-methyl-3,6dihydropyrazolo[3,4-d][1,2,3]triazin-4one]	0		66		
O=c1[nH]nnc2nn(Cc3ccccc3F)cc12 [Compound 1, 6-(2-fluorobenzyl)-3,6-dihydropyrazolo[3,4-d][1,2,3]triazin-4-one]				66	responders at 30 mg/kg [1, 5]: 100%
O=c1[nH]nnc2nn(Cc3ccc(F)cc3)cc12 [Compound 7, 6-(4-fluorobenzyl)-3,6-dihydropyrazolo[3,4-d][1,2,3]triazin-4-one]	100	1.28	66		
